Where two headings read alike, the source gives them in different places.
Assays:
whole blood phagocytes = assay: Oxidative burst, luminol-enhanced chemiluminescence, whole blood; type: cell-based, human; settings: for IC50: Homo sapiens, diluted whole blood, opsonized zymosan-A, luminol
Description: (§1) In addition to that, effects of these compounds on T-cells proliferation were also evaluated; investigating their (Compounds 2 and 3) ability to modulate PHA activated T-cell proliferation response and production of IL-2 cytokine.
(§2) Heparinized blood was obtained by vein puncture aseptically from healthy volunteers (25-38 years age). The buffy coat containing PMNs was collected by dextran sedimentation and the cells were isolated after the LSM density gradient centrifugation from the tube base. Cells were washed twice and suspended in Hank's Balance Salt Solution (Ca^2+ and Mg^2+ free) (HBSS^−−), pH 7.4. Neutrophils were purified from RBCs contamination using hypotonic solution. Cells were adjusted to their required concentration using Hank's Balance Salt Solution containing Ca^2+ and Mg^2+ (HBSS^++).
(§3) Luminol-enhanced chemiluminescence assay was performed as described by Helfand et al. (17), and Haklar et al. (18) with some modifications. Briefly, 25 μL diluted whole blood (1:200 dilution in sterile HBSS^++) or 25 μL of PMNs (1×10^6) cells were incubated with 25 μL of serially diluted compounds with concentration ranges between 3.2-50 mg/mL. Tests were performed in white 96-well plates, which were incubated at 37° C. for […] in the thermostated chamber of the luminometer. Opsonized zymosan-A, 25 μL, followed by 25 μL luminol (7×10^−5 M) along with HBSS^++ was added to each well to obtain a 100 μL volume/well. Wells received HBSS^++, and cells but no compounds were used as a negative control. Chemiluminescence peaks were recorded with the Luminometer. Results were monitored as chemiluminescence relative light units (RLU) with peak and total integral values.

IL-2 production = assay: IL-2 cytokine production by PHA activated peripheral blood mononuclear cells (ELISA); type: cell-based, human
Description: (§4) FIG. 2: Effect of Compounds 1-3 on phytohemagglutinin (PHA) T-cell proliferation and production. (2A) The bar graph represents effects of various concentrations of the test Compounds 1-3 after 72 h incubation with peripheral blood mononuclear cells at 37° C. Effect of compounds on T-cell proliferation response is compared with non-proliferated […] cells. The bar graph (2B) represents effects of various concentrations of the test Compounds 1-3 on production of IL-2 compared with (+ve) and without (−ve) PHA induced IL-2 production. Each bar represents the mean value of triplicate reading±SD.
IL-2 cytokine was produce from peripheral blood mononuclear cells (PBMC). IL-2 cytokine production by PHA activated cells in the presence or absence of test compounds was studied by ELISA using the human cytokine kit (Diaclone, Besancon Cedex France). Briefly, freshly prepared mononuclear cells (10^5/well) were cultured in 96-well microtiter flat bottom plate in the presence or absence of 5 μg/mL PHA. Four different concentrations (10.33-331.13 μM/mL) of compounds, along with PHA, were used in this assay. The culture plate was incubated at 37° C. for 18 h. Then the supernatant was collected and analyzed for IL-2 cytokine production following kit manufacturer instructions.

[1] = system: PHA-activated T-cell proliferation; assay: PHA-activated T-cell proliferation assay (3H-thymidine incorporation); type: cell-based, human; settings: for IC50: Homo sapiens, T-cell, PHA 5 μg/mL, 72 hours incubation; for effect on T-cell proliferation (in words): PHA-activated
Description: as §4
The T-cell proliferation assay was performed as described by Nielson et al. (19). In this assay, isolated lymphocytes were stimulated by adding the phytohemagglutinin (PHA) in culture. The rate of proliferation and survival was measured by radiolabelled thymidine incorporation method. The lymphocytes were isolated as described by Boyum (20). A 50 μL of cell suspension (10^6/mL) was added to each well of a 96-well round bottom tissue culture plate. 50 μL of PHA was added in each well from the working solution (20 μg/mL) to have final concentration 5 μg/mL. The final volume was adjusted to 200 μL in each well by adding complete RPMI media. The plates were incubated at 37° C. for 72 hours (90% humidity, 5% CO2/air). Methyl-^3H thymidine (Amersham Pharmacia Biotech) 0.5 μCi was added in each well and incubated for further 18 hours. Cells were harvested on a filter mat (Type G-7) using cell harvester (INOTECH IH-280, Switzerland) and the radioactivity (CPM) was measured using a β-scintillation counter (LS 6500, Beckman Coulter, USA). (FIG. 2A)

[2] = system: isolated polymorphoneutrophils (PMNs); assay: Oxidative burst, luminol-enhanced chemiluminescence, isolated PMNs; type: cell-based, human; settings: for IC50: Homo sapiens, isolated PMNs, opsonized zymosan-A, luminol
Description: as §1, §2, §3

[3] = system: human lung cancer cell line (NCI-H460); assay: Sulforhodamine B (SRB) growth inhibition assay; type: cell-based; settings: for GI50: Homo sapiens
Description: The sulforhodamine B (SRB) protein-staining assay was employed for measurement of in vitro growth inhibition and cytotoxicity (21) The appropriate cell density (cells/well) of NCI-H460 cells (1×10^4) was added in 96-well plates. The cell density used was dependent on the doubling time of the cell line leading to the formation of monolayer. After 24 h incubation, different doses of Compounds 1-3 were added and incubated for further 48 h. This was followed by fixation of cells with ice-cold trichloroacetic acid (50 μl, 50%) at room temperature for 30 min. The plates were carefully washed five times with distilled water, and left for overnight drying in air. Sulforhodamine B dye (100 μl, 0.4% in 1% acetic acid) was introduced in each well and after 30 min residual dye was removed using acetic acid (1%) and air-dried overnight. The bound SRB dye was solubilized in Tris-base solution (100 μl, 10 mM) with gentle shaking on a plate-shaker for 5 min prior to optical density (OD) measurements at 545 nm in a plate reader. Drug concentrations causing growth inhibition (GI50) of 50% cells were calculated from dose response curves and total growth inhibition of Compound 2 was also evaluated.

[4] = Homo sapiens, PBMC, 18 h, PHA-activated PBMC, 18 h, ELISA, read-out: IC50 (μM) IL-2

SMILES	effect on reactive oxygen species (ROS) production, whole blood phagocytes (in words) (whole blood phagocytes)	IC50 (whole blood phagocytes) [µM]	IC50 (IL-2 production; [4]) [µM]	IC50 (IL-2 production; Homo sapiens, PBMC, FIG. 2, read-out: IL-2 production IC50 (unit inferred)) [µM]	IC50 [1] [µM]	effect on reactive oxygen species (ROS) production, isolated neutrophils (in words) [2]	IC50 [2] [µM]	anticancer activity against NCI-H460 cell line (in words) [3]	GI50 ([3]; NCI-H460, 48 h, SRB) [µM]	TGI ([3]; NCI-H460, 48 h, SRB) [µM]	effect on IL-2 production (in words) (IL-2 production; PHA-activated PBMC)	effect on T-cell proliferation (in words) [1]	TGI (μM) ([3]; NCI-H460, 48 h, SRB)	IC50 (IL-2 production; PHA-activated PBMC, 18 h, ELISA, read-out: IC50 (μM) IL-2) [µM]	growth inhibition of cancer cells at 100 μM (in words) ([3]; NCI-H460, 100 μM)
C[C@]12C=CC(=O)C[C@@H]1CC[C@@H]1[C@@H]2CC[C@@]2(C)[C@H]1CC[C@]2(C)O [Compound 2, 17β-hydroxy-17α-methyl-5α-androst-1-en-3-one]	did not result in any significant effect	> 331	16.9 ± 1.32	16.9 ± 1.32	< 10.3	did not result in any significant effect	> 166	showed anticancer activity	22.5 ± 4.15	60 ± 9.2					
C[C@]12C=CC(=O)C=C1CC[C@@H]1[C@@H]2CC[C@@]2(C)[C@H]1CC[C@]2(C)O [Compound 1, dianabol, reference compound]		> 333	> 167		> 167		> 167	showed anticancer activity	28.3 ± 2.72		did not show any significant effect	did not show any significant effect	ND (ND: Values could not be determined indicates <50% inhibition of cell growth at maximum dose (100 μM) tested.)		
C[C@]12CCC(=O)C[C@@H]1CC[C@@H]1[C@@H]2CC[C@@]2(C)[C@H]1CC[C@]2(C)O [Compound 3, 17β-hydroxy-17α-methyl-5α-androstan-3-one]	did not result in any significant effect	> 329	49.3 ± 1.32		42.1	did not result in any significant effect	> 164	non-active	> 100		moderate inhibitory activity	moderate inhibitory activity	ND (ND: Values could not be determined indicates <50% inhibition of cell growth at maximum dose (100 μM) tested.)	49.3 ± 1.32	not able to inhibit considerable growth of cancer cells
COc1cccc2c1C(=O)c1c(O)c3c(c(O)c1C2=O)C[C@@](O)(C(=O)CO)C[C@@H]3O[C@H]1C[C@H](N)[C@H](O)[C@H](C)O1 [doxorubicin, reference compound]									0.08 ± 0.02						

Source: patent US8389501B2, “Anticancer compound” (priority 2011, dated 2013)
